{"source": "patent US6500824B1", "about": "“Kappa (OP2) opioid receptor antagonists” (Regents of the University of Minnesota, priority 1998, dated 2002)", "type_in_all_cases": "cell-based", "key": {"[1]": {"target": "T1, kappa (OP2) opioid receptor (Cavia porcellus, UniProt P41144)", "T1 construct": "a strip of longitudinal muscle with the myenteric plexus attached was prepared; from tissue; host or cells: guinea pig ileal longitudinal muscle with myenteric plexus", "T1 sequence (P41144 whole entry)": "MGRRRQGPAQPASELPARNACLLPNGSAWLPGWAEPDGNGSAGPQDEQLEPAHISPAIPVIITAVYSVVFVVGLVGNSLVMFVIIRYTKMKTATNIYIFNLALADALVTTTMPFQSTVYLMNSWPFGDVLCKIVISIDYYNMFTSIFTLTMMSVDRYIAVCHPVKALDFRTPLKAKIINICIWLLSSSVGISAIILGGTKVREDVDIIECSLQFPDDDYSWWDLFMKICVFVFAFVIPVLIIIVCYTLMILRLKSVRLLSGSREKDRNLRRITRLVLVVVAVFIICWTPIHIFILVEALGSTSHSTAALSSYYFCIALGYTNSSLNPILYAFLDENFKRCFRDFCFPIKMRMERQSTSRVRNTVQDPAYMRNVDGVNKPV", "test": "Guinea pig ileal longitudinal muscle (GPI) smooth muscle assay, antagonism of ethylketazocine (EKC)", "description": "(§1) 1. Guinea Pig Ileal Longitudinal Muscle (GPI). Ilea from guinea pigs were taken approximately 10 cm from the ileocecal junction, and a strip of longitudinal muscle with the myenteric plexus attached was prepared by the method of H. B. Rang et al., Brit. J Pharmacol., 1964, 22, 356. A 1 cm portion of this strip was then mounted between two platinum electrodes placed in a 10 ml organ bath and connected to an isometric transducer, contractions were recorded on a polygraph. Contractions of the ileal strip were initiated by supramaximal rectangular pulses in all preparations (80 V of 0.5 ms duration at a frequency of 0.1 Hz). Krebs bicarbonate solution containing […] chloropheniramine maleate was the bathing solution and was continuously bubbled with 95% O2 and 5% CO2. The organ bath was maintained at 36-37° C. The longitudinal strip was allowed to equilibrate with continuous stimulation for a minimum of 90 min. Cumulative concentration-response curves were determined after drugs were added to the bath in preselected amounts and washed out with buffer after noting their maximum effects.\n(§2) The standard agonists employed were [D-Ala^2, D-Leu^5]enkephalin (DADLE) (D), morphine (M) and ethylketazocine (EKC); these are selective for delta (D), mu (M) and kappa (EKC) opioid receptors, respectively. Concentration-response curves were obtained in the absence (control) and the presence of the antagonist and were determined as IC50 values. The IC50 ratio represents the IC50 in the presence of the antagonist divided by the control IC50 value in the same tissue. A concentration independent value of antagonist potency is calculated from the equation, Ke=[antagonist]/(IC50 ratio-1)."}, "μ(OP3) opioid receptor": {"system": "μ(OP3) opioid receptor", "test": "Guinea pig ileal longitudinal muscle (GPI) smooth muscle assay, antagonism of morphine", "conditions": "agonist morphine, antagonist concentration 100 nM", "description": "as §1, §2"}, "δ(OP1) opioid receptor": {"target": "T2, δ(OP1) opioid receptor (Mus musculus, UniProt P32300)", "T2 construct": "Both vasa deferentia were dissected out of mice and mounted singly; from tissue; host or cells: mouse vas deferens", "T2 sequence (P32300 whole entry)": "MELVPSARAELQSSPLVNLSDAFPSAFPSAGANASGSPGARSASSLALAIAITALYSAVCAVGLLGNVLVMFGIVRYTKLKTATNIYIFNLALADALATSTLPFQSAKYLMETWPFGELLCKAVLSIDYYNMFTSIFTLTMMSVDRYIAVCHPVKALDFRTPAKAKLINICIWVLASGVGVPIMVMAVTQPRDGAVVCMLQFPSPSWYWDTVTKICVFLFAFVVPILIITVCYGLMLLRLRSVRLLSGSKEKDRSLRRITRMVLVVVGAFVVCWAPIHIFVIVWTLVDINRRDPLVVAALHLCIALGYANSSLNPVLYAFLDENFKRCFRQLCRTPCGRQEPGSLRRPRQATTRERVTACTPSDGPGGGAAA", "test": "Mouse vas deferens (MVD) smooth muscle assay, antagonism of DADLE", "description": "2. Mouse Vas Deferens (MvD). This assay was performed according to the description by G. Henderson et al., Brit. J. Pharmacol., 1972, 46,764. Both vasa deferentia were dissected out of mice and mounted singly through two platinum electrodes in a 10 ml organ bath. The bath contained Krebs bicarbonate solution that was continuously bubbled with 95% O2 and 5% CO2. The organ bath was maintained at 37° C. The tissue was attached to an isometric transducer and stimulated transmurally with rectangular pulses ([…], 1 ms duration, supramaximal voltage). Drugs were added cumulatively to the bath in preselected amounts and washed out after noting their maximum effects.\nas §2"}, "[2]": {"conditions": "GPI, agonist EKC, antagonist concentration 100 nM, read-out: Antagonist Potency Ke κ(OP2) EKC"}}, "note": "Like-named read-outs stand apart in the source and are kept apart here."}
{"compound": "CNC(=N)Nc1ccc2[nH]c3c(c2c1)C[C@@]1(O)[C@H]2Cc4ccc(O)c5c4[C@@]1(CCN2CC1CC1)[C@H]3O5.O.O.O=C(O)C(F)(F)F.O=C(O)C(F)(F)F", "note": "[Compound 18, 5′-Methylguanidinyl-17-cyclopropylmethyl-6,7-didehydro4,5α-epoxy-3,14-dihydroxyindolo[2′,3′:6,7]morphinan Ditrifluoroacetate Dihydrate]", "values": [{"measurement": "Kb", "setting": "[1]; [2]", "result": 0.59, "unit": "nM"}, {"measurement": "Antagonist Potency Ke μ(OP3) Morphine", "setting": "μ(OP3) opioid receptor", "result": 10.8, "unit": "nM"}]}
{"compound": "N#C/N=C(\\NCCN1CCCC1)Nc1ccc2[nH]c3c(c2c1)C[C@@]1(O)C2Cc4ccc(O)c5c4[C@@]1(CCN2CC1CC1)C3O5", "note": "(stereo partly drawn) [Compound 21, 5′-N-Cyano-N′-[2-(1-aminoethylpyrrolidine)]-N″-[17-(cyclopropylmethyl)-6,7-didehydro4,5α-epoxy-3,14dihydroxyindolo[2′,3′:6,7]morphinian]-guanidine]", "values": [{"measurement": "Kb", "setting": "[1]", "result": 0.47, "unit": "nM"}, {"measurement": "Antagonist Potency Ke μ(OP3) Morphine", "setting": "μ(OP3) opioid receptor", "result": 5.71, "unit": "nM"}, {"measurement": "Kb", "setting": "δ(OP1) opioid receptor", "result": 127, "unit": "nM"}]}
{"compound": "CCNC(=N)Nc1ccc2[nH]c3c(c2c1)C[C@@]1(O)[C@H]2Cc4ccc(O)c5c4[C@@]1(CCN2CC1CC1)[C@H]3O5.O.O.O=C(O)C(F)(F)F.O=C(O)C(F)(F)F", "note": "[Compound 16, 5′-N-Ethylguanidinyl-17-cyclopropylmethyl-6,7-didehydro-4,5-α-epoxy-3,14-dihydroxyindolo[2′,3′:6,7]morphinan Ditrifluoroacetate Dihydrate]", "values": [{"measurement": "Kb", "setting": "[1]; [2]", "result": 0.157, "unit": "nM"}, {"measurement": "Antagonist Potency Ke μ(OP3) Morphine", "setting": "μ(OP3) opioid receptor", "result": 19.00, "unit": "nM"}]}
{"compound": "CCCCNC(=N)Nc1ccc2[nH]c3c(c2c1)C[C@@]1(O)[C@H]2Cc4ccc(O)c5c4[C@@]1(CCN2CC1CC1)[C@H]3O5.O.O.O=C(O)C(F)(F)F.O=C(O)C(F)(F)F", "note": "[Compound 17, 5′-N-Butylguanidinyl-17-cyclopropylmethyl-6,7-didehydro4,5α-epoxy-3,14-dihydroxyindolo[2′,3′:6,7]morphinan Ditrifluoroacetate Dihydrate]", "values": [{"measurement": "Kb", "setting": "[1]; [2]", "result": 0.09, "unit": "nM"}]}
